According to patent US20230026163A1, “ANTICANCER COMPOUND AND MEDICAL USE THEREOF” (ASCENTAWITS PHARMACEUTICALS, LTD., priority 2019, published 2023):

How the values were obtained:
[1] = test system: H460 non-small cell lung cancer; assay: Cytotoxicity test of human tumor cell line in vitro (CTG, 72 hours); format: cell-based; settings: for IC50: Homo sapiens, NCI-H460, H460, 72 hours exposure; for Anticancer activity compared to the compound of control 2: H460
Experimental: IC50 values were obtained by the following methods. The cancer cells were exposed to various concentrations of compounds for 72 hours. Following by washing steps, fresh medium was added to allow the growth of the cancer cells. The cancer cells were stained to obtain cell viability. Then, comparisons were made with the medium-only control.
Specifically, the exponentially growing cells were seeded in 96-well plates at a density of 2×10^3 cells/well, and 100 μL/well. The cells were incubated for 24 hours at 37° C., in 5% CO2, in 95% air, and 100% relative humidity. Next, 99 μL of culture medium was added. The compounds were dissolved in 100% DMSO at 200 times the desired final test concentration. Upon addition of compounds, the compounds were further diluted to 4 times the desired final concentration with a complete medium. Aliquots of 1 μL of compounds at specific concentration were added to the micro-wells containing 199 μL of medium to obtain the final compound concentrations as reported. After the compounds were added, the plates were incubated for an addition 72 hours at 37° C., in 5% CO2, in 95% air, and 100% relative humidity.
The plates to be test containing the cells were equilibrated at room temperature for 30 minutes, and 100 μL of medium per well was discarded. 100 μL of CTG reagent (CelltiterGlo Kit) was added to each well. The plates were placed in a fast-shaker to shake for 2 minutes, and placed at room temperature for 30 minutes in the dark. Chemoluminescence signal values were read with Envision instrument.

[2] = molecular target: P-glycoprotein (Homo sapiens, UniProt P08183); assay: in vitro; settings: for Papp A→B at 2 h / Papp B→A at 2 h / recovery at 2 h: dog; for Papp A→B at 2 h / Papp B→A at 2 h: MDCK-MDR1; for P-glycoprotein substrate (experimental conclusion): with vs without Verapamil
Experimental: MDCKII-MDR1 cells were incubated in cell culture flasks. The incubator was set at 37° C., 5% CO2, and a guaranteed relative humidity of 95%. When the cells reached 70 to 90% confluence, the cells may be seeded to transwells.
50 μL of the cell suspensions were added to the apical chambers of each well of the 96-well transwells at a final seeding density of 5.45×10^5 cells/cm^2.
MDCKII-MDR1 cells may be fully confluent and differentiated after 4 to 8 days of incubation. At this time, the cells may be applied to penetration test. The monolayer membrane resistance was measured with a resistance meter (Millipore), and the resistance per well was recorded. After the test, the transwells were returned to the incubator.
The transwells with MDCKII-MDR1 cells were taken from the incubator. The cell monolayers were rinsed twice with buffer and incubated at 37° C. for 30 minutes.
The rate of the compounds from an apical end to a basolateral end was determined. 75 μL of the buffer containing the test sample was added to each well of the apical chambers (apical end), and 235 μL of the buffer was added to each well of the basolateral chambers (basolateral end).
The rate of the compounds transporting from the basolateral end to the apical end was determined. 75 μL of the buffer was added to the apical chambers (apical end), and 235 μL of the buffer containing the test sample was added to the basolateral chamber (basolateral end).
After the apical chambers and the basolateral chambers were combined respectively, the transwells were incubated at 37° C. for 2 hours.
After incubation, 50 μL of the sample from each well of the apical chambers and the basolateral chambers of the transwells was transferred to new sample tubes respectively. 200 μL of acetonitrile (100 nM of Alprazolam, 200 nM of Labetalol, 200 nM of caffeine, and 2 μM of Ketoprofen) as an internal standard was added to the sample tubes, vortexed for 10 minutes, and centrifuged at 3220 g for 30 minutes. 100 μL of the supernatant was taken and diluted with an equal volume of water for LC-MS/MS analysis. Each sample was incubated in triplicate.
Peak-areas were calculated from ion chromatography results. The apparent permeability coefficient (Papp, unit: cm/s×10-6) of the compounds was calculated by the following formula.
In the formula, VA was the volume of the solution at the acceptor end (Ap→B1 was 0.235 mL, and B1→Ap was 0.075 mL), Area was the membrane area (0.143 cm^2) of 96-well transwell, time was the incubation time (unit: s), [drug]acceptor referred to the drug concentration of the acceptor end after incubation, and [drug]initial,donor referred to the initial concentration of the donor end before incubation.
Efflux ratio was calculated with the following formula.
In the formula, Papp(B_A) was the apparent permeability coefficient from the basolateral end to the apical end, and Papp(A-B) was the apparent permeability coefficient from the apical end to the basolateral end.
The recovery rate was calculated with the following formula.
In the formula, VA was the solution volume of the acceptor end (unit: mL), VD was the solution volume of the donor end (unit: mL), [drug]acceptor referred to the drug concentration of the acceptor end after incubation, and [drug]initial,donor referred to the initial concentration of the donor end before incubation.

[3] = MDCK-MDR1, Recovery (%) AP-BL, Verapamil 0 μM
[4] = MDCK-MDR1, Recovery (%) AP-BL, Verapamil 100 μM
[5] = MDCK-MDR1, Recovery (%) BL-AP, Verapamil 0 μM
[6] = MDCK-MDR1, Recovery (%) BL-AP, Verapamil 100 μM

P-glycoprotein, sequence (P08183 whole entry): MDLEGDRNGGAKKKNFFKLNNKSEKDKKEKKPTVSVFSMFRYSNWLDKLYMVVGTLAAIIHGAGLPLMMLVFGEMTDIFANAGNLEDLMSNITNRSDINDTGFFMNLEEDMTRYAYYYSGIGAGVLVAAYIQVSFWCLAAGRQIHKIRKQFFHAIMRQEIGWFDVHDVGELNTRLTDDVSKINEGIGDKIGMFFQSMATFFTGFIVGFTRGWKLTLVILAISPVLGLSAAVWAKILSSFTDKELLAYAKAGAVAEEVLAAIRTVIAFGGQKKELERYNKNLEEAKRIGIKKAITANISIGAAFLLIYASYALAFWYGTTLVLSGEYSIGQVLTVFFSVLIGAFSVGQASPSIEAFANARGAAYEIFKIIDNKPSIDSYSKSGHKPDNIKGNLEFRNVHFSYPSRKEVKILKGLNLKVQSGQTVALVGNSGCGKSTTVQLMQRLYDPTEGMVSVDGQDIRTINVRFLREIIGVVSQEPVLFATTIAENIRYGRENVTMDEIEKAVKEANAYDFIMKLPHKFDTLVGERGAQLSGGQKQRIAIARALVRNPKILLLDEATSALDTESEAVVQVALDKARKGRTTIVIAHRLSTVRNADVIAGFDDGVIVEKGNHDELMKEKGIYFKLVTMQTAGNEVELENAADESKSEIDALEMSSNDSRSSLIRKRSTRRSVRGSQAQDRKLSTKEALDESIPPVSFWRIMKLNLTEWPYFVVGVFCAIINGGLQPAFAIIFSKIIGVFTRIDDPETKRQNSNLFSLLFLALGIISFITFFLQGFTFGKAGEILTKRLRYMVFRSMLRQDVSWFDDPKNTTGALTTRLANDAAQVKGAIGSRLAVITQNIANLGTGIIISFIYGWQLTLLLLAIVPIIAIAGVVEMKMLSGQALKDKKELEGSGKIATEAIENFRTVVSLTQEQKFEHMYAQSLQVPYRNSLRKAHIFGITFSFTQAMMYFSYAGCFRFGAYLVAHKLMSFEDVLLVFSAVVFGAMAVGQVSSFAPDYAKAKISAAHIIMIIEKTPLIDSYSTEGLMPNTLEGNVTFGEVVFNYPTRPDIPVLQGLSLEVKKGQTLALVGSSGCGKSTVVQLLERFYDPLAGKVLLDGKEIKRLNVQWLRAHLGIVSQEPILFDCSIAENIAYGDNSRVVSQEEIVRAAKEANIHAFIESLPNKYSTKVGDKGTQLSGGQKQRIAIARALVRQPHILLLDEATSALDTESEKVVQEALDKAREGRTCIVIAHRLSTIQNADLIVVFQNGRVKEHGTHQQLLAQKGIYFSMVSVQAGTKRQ

`O=[N+]([O-])c1ccc(COP(=O)(N2CC2)N2CC2)c2ccccc12` [Compound 02] showed an IC50 [1] of 755 nM.
`CC(OP(=O)(N1CC1)N1CC1)c1ccc2ccccc2c1[N+](=O)[O-]` (stereo not drawn) [Compound 04] was tested, and the “Anticancer activity compared to the compound of control 2” value [1] was “obviously worse” and the IC50 [1] was 9280 nM.
For `O=[N+]([O-])c1c(C(OP(=O)(N2CC2)N2CC2)C(F)(F)F)ccc2ccccc12` (stereo not drawn) [Compound 05], the “Anticancer activity compared to the compound of control 2” value [1] was “obviously worse” and the IC50 [1] was 9020 nM.
`O=[N+]([O-])c1cccc2ccc(COP(=O)(N3CC3)N3CC3)cc12` [Compound 06] gave an IC50 [1] of 172 nM.
`CC(OP(=O)(N1CC1)N1CC1)c1ccc2cccc([N+](=O)[O-])c2c1` (stereo not drawn) [Compound 07] gave an IC50 [1] of 168 nM.
`O=[N+]([O-])c1cccc2ccc(C(OP(=O)(N3CC3)N3CC3)C(F)(F)F)cc12` (stereo not drawn) [Compound 08] was tested, and the IC50 [1] was 3840 nM.
For `O=[N+]([O-])c1cccc2c(COP(=O)(N3CC3)N3CC3)cccc12` [Compound 09], the IC50 [1] was 1650 nM.
For `CC(OP(=O)(N1CC1)N1CC1)c1cccc2c([N+](=O)[O-])cccc12` (stereo not drawn) [Compound 10], the IC50 [1] was 692 nM.
Molecule `O=[N+]([O-])c1cccc2c(C(OP(=O)(N3CC3)N3CC3)C(F)(F)F)cccc12` (stereo not drawn) [Compound 11] has an IC50 [1] of 7650 nM.
Work on `CC(OP(=O)(N1CC1)N1CC1)c1ccc([N+](=O)[O-])c2cccnc12` (stereo not drawn) [Compound 12] yielded an IC50 [1] of 35.2 nM.
Molecule `CC(OP(=O)(N1CC1)N1CC1)c1ccc([N+](=O)[O-])c2ccncc12` (stereo not drawn) [Compound 13] has an IC50 [1] of 12.9 nM.
`CC(OP(=O)(N1CC1)N1CC1)c1ccc([N+](=O)[O-])c2cnccc12` (stereo not drawn) [Compound 14] gave an IC50 [1] of 3.82 nM, a Papp A→B at 2 h [2] of 12.9 ×10⁻⁶ cm/s and a Papp B→A at 2 h [2] of 26.3 ×10⁻⁶ cm/s. For the same molecule, the recovery at 2 h [2, 3] was 91.1%, the recovery at 2 h [2, 4] was 80.8% and the recovery at 2 h [2, 5] was 104%. For the same molecule, the recovery at 2 h [2, 6] was 90.8% and the “P-glycoprotein substrate (experimental conclusion)” value [2] was “not P-glycoprotein substrates”.
Molecule `CC(OP(=O)(N1CC1)N1CC1)c1ccc([N+](=O)[O-])c2ncccc12` (stereo not drawn) [Compound 15] has an IC50 [1] of 145 nM.
`O=[N+]([O-])c1ccc(C(OP(=O)(N2CC2)N2CC2)C(F)(F)F)c2ncccc12` (stereo not drawn) [Compound 16] showed an IC50 [1] of 34.9 nM.
Work on `O=[N+]([O-])c1ccc(C(OP(=O)(N2CC2)N2CC2)C(F)(F)F)c2ccncc12` (stereo not drawn) [Compound 18] yielded an IC50 [1] of 7.88 nM.
For `O=[N+]([O-])c1ccc(C(OP(=O)(N2CC2)N2CC2)C(F)(F)F)c2cccnc12` (stereo not drawn) [Compound 19], the IC50 [1] was 311 nM.
`O=[N+]([O-])c1ccc(COP(=O)(N2CC2)N2CC2)c2ncccc12` [Compound 20] was tested, and the IC50 [1] was 41.5 nM, the Papp A→B at 2 h [2] was 33.7 ×10⁻⁶ cm/s and the Papp B→A at 2 h [2] was 21.8 ×10⁻⁶ cm/s. For the same molecule, the recovery at 2 h [2, 3] was 92.7%, the recovery at 2 h [2, 4] was 87.6% and the recovery at 2 h [2, 5] was 96.3%. The recovery at 2 h [2, 6] was 96.2% and the “P-glycoprotein substrate (experimental conclusion)” value [2] was “not P-glycoprotein substrates”.
Work on `O=[N+]([O-])c1ccc(COP(=O)(N2CC2)N2CC2)c2ccncc12` [Compound 21] yielded an IC50 [1] of 7.17 nM.
`O=[N+]([O-])c1ccc(COP(=O)(N2CC2)N2CC2)c2cccnc12` [Compound 22] showed an IC50 [1] of 200 nM.
`O=[N+]([O-])c1cccc2cc(COP(=O)(N3CC3)N3CC3)ccc12` [Compound 24] gave an IC50 [1] of 478 nM.
With `O=[N+]([O-])c1cc(COP(=O)(N2CC2)N2CC2)cc2ccccc12` [Compound 25] the IC50 [1] was 106 nM.
`COCCc1ccc(OCC(O)CNC(C)C)cc1` (stereo not drawn) [Metoprolol, reference compound] gave a Papp A→B at 2 h [2] of 26 ×10⁻⁶ cm/s and a Papp B→A at 2 h [2] of 18.9 ×10⁻⁶ cm/s.
